Our source for the IC50 and EC50 values is ChEMBL document CHEMBL3879901, “Substituted isoquinolin-1(2H)-ones, and methods of use thereof” (2012).

In one assay the target is PI3-kinase p110-delta/p85-alpha (Homo sapiens, UniProt O00329). As to the kind of experiment: Inhibition of N-terminal His6-tagged recombinant full-length human p110delta/untagged recombinant full length p85alpha expressed in baculovirus infected Sf21 cells using phosphatidylinositol as substrate in presence of gamma-32P-ATP after 5 mins by thin layer chromatographic method.
Sequence of PI3-kinase p110-delta/p85-alpha (P27986 whole entry): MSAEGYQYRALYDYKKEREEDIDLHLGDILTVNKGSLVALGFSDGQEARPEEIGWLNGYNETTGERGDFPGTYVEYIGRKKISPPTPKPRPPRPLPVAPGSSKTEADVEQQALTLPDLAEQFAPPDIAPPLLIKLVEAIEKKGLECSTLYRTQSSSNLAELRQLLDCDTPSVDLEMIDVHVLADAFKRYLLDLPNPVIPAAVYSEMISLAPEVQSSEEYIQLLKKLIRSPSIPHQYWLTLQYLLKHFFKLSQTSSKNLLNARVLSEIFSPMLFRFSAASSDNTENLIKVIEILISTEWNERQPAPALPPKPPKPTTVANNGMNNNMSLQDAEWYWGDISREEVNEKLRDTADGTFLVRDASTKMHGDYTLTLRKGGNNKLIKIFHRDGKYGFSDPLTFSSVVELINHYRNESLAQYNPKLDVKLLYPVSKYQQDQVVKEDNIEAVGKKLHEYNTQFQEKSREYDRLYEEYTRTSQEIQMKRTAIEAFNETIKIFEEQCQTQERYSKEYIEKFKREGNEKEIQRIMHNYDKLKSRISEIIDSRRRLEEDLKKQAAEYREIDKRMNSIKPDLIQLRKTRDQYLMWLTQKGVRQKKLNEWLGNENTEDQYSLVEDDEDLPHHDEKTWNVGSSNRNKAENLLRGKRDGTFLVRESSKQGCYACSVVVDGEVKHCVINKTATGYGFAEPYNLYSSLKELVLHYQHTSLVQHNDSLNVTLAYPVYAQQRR
Sequence of PI3-kinase p110-delta/p85-alpha (O00329 whole entry): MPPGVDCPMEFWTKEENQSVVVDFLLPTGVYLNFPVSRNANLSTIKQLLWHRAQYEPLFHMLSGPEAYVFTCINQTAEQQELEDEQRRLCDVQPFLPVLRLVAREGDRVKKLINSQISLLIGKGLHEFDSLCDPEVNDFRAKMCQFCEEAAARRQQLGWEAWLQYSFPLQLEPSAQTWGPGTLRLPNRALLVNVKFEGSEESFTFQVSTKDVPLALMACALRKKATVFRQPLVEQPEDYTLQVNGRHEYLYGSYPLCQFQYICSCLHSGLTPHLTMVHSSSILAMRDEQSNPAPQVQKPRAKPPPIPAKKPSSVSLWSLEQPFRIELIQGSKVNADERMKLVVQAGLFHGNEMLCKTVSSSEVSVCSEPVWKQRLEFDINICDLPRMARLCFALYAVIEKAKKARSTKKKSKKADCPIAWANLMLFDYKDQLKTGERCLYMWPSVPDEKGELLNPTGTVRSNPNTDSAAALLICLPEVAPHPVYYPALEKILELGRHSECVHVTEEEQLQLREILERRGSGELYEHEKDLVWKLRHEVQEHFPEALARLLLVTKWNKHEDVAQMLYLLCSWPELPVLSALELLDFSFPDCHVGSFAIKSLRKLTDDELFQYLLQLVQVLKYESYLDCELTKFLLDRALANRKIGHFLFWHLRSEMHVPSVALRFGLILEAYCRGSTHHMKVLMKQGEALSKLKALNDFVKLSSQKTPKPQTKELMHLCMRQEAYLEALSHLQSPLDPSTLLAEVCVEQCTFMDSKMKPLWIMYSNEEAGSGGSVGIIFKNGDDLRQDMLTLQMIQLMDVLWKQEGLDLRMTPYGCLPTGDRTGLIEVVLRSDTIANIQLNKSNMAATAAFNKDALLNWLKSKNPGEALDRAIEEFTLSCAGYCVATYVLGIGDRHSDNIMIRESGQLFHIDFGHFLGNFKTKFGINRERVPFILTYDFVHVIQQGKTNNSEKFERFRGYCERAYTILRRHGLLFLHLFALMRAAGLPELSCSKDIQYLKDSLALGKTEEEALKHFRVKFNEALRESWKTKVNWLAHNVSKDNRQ
One may read the IC50 as the point on the concentration scale where inhibition reaches its midpoint. `CCC(Nc1ncnc2[nH]cnc12)c1cc2cccc(C)c2c(=O)n1-c1cc(F)cc(F)c1` (stereo not drawn): the IC50 is under 100 nM. Still for that read-out and setting: as for `Cc1cccc(C)c1-n1c(CNc2ncnc3[nH]cnc23)cc2cccc(C)c2c1=O`, the figure is under 100 nM. On to `CCn1c(Cn2nc(-c3cccc(O)c3)c3c(N)ncnc32)cc2cccc(C)c2c1=O`, for which the IC50 is under 100 nM. Turning to `CCC(Nc1ncnc2[nH]cnc12)c1cc2ccccc2c(=O)n1-c1ccccc1` (stereo not drawn), the IC50 was under 100 nM. Still for that read-out and setting: the figure for `CC(C)n1c(Cn2nc(-c3cc(O)cc(F)c3)c3c(N)ncnc32)cc2cccc(Cl)c2c1=O` is under 100 nM. For the molecule `Cc1cccc2cc(Cn3nc(-c4cn[nH]c4)c4c(N)ncnc43)n(-c3ccccc3C(F)(F)F)c(=O)c12`, the IC50 is under 100 nM. Still for that read-out and setting: as for `CC(Nc1ncnc2[nH]cnc12)c1cc2ccccc2c(=O)n1-c1ccccc1` (stereo not drawn), the figure is under 100 nM; as for `Cc1cccc2cc([C@H](C)Nc3ncnc4ccccc34)n(-c3ccccc3)c(=O)c12`, under 100 nM; as for `Cc1ccccc1-n1c(Cn2nc(-c3ccc(CN)cc3)c3c(N)ncnc32)cc2cccc(C)c2c1=O`, under 10000 nM.

Consider `C=C(C)c1nn(Cc2cc3cccc(C)c3c(=O)n2-c2ccccc2)c2ncnc(N)c12`, for which the IC50 was under 100 nM. Still for that read-out and setting: as for `Nc1ncnc2c1c(I)nn2Cc1cc2cccc(F)c2c(=O)n1-c1ccccc1F`, the figure is under 10000 nM; as for `Cc1cccc2cc([C@H](C)Nc3nc(N)ncc3F)n(-c3ccccc3)c(=O)c12`, under 100 nM; as for `CC(C)n1c(Cn2nc(I)c3c(N)ncnc32)cc2cccc(F)c2c1=O`, under 10000 nM. Same read-out and setting: the figure for `CNC(=O)c1cccc(-c2nn(Cc3cc4cccc(C)c4c(=O)n3-c3ccccc3C)c3ncnc(N)c23)c1` is under 10000 nM. Same read-out and setting: the figure for `Cc1cccc2cc([C@H](C)Nc3nc(N)ncc3Cl)n(C3CC3)c(=O)c12` is under 100 nM.

Take `Cc1cccc2cc([C@H](C)Nc3ncnc4[nH]nc(Cl)c34)n(C3CC3)c(=O)c12`: the IC50 was under 100 nM. Still for that read-out and setting: the figure for `Nc1ncnc2c1c(-c1cccc(O)c1)nn2Cc1cc2cccc(F)c2c(=O)n1-c1ccccc1F` is under 1000 nM.

System in the next assay: not listed separately
As to the kind of experiment: Antiproliferative activity against Balb/c mouse splenic B cells preincubated for 30 mins followed by LPS or F(ab')2 donkey anti-mouse IgM and recombinant mouse IL4 stimulation measured after 72 hrs by Alamar Blue reduction assay. Format: functional, cell-based. Background: The colour change of resazurin is a common sign of viable cells or microbes.
In general, EC50 refers to the midpoint of the concentration-response curve. Consider `CCC(Nc1ncnc2[nH]cnc12)c1cc2cccc(C)c2c(=O)n1-c1cc(F)cc(F)c1` (stereo not drawn), for which the EC50 was under 100 nM. Consider `CC(C)n1c(Cn2nc(-c3cccc(O)c3)c3c(N)ncnc32)cc2cccc(F)c2c1=O`, for which the EC50 was under 1000 nM.

With `Cc1cccc2cc(C(C)Nc3ncnc4[nH]cnc34)n(-c3ccccc3)c(=O)c12` (stereo not drawn), the EC50 was under 100 nM. Still for that read-out and setting: as for `Nc1ncnc2c1c(I)nn2Cc1cc2cccc(I)c2c(=O)n1C1CCCC1`, the figure is under 10000 nM; as for `CCn1c(Cn2nc(-c3cccc(O)c3)c3c(N)ncnc32)cc2cccc(C)c2c1=O`, under 100 nM; as for `CCC(Nc1ncnc2[nH]cnc12)c1cc2ccccc2c(=O)n1-c1ccccc1` (stereo not drawn), under 100 nM. For the molecule `CC(C)n1c(Cn2nc(-c3cc(O)cc(F)c3)c3c(N)ncnc32)cc2cccc(Cl)c2c1=O`, the EC50 was under 100 nM. `Cc1cccc2cc(Cn3nc(-c4cn[nH]c4)c4c(N)ncnc43)n(-c3ccccc3C(F)(F)F)c(=O)c12`: the EC50 is under 100 nM.

In the case of `CC(Nc1ncnc2[nH]cnc12)c1cc2ccccc2c(=O)n1-c1ccccc1` (stereo not drawn), the EC50 was under 100 nM. Still for that read-out and setting: as for `Cc1cccc2cc([C@@H](C)Nc3ncnc4[nH]cnc34)n(-c3ccccc3)c(=O)c12`, the figure is under 1000 nM; as for `C[C@H](Nc1ncnc2nc[nH]c12)c1cc2cccc(Cl)c2c(=O)n1-c1ccccc1` [DUVELISIB], under 100 nM; as for `COc1ccc(-c2nn(Cc3cc4cccc(C)c4c(=O)n3-c3ccccc3F)c3ncnc(N)c23)cc1`, under 1000 nM. The same measure, in the same setting: the figure for `Cc1cccc2cc([C@@H](C)Nc3ncnc4[nH]cnc34)n(C3CC3)c(=O)c12` is over 10000 nM; for `Cc1cccc2cc([C@@H](C)Nc3ncnc4[nH]cnc34)n(C3CCC3)c(=O)c12` it is under 10000 nM. For `Cc1cccc2cc([C@H](C)Nc3nc(Cl)ncc3Cl)n(-c3ccccc3)c(=O)c12`, the EC50 was under 100 nM.

As for `Cc1ccccc1-n1c(Cn2nc(C(=O)NO)c3c(N)ncnc32)cc2cccc(C)c2c1=O`, the EC50 is under 100 nM. Still for that read-out and setting: the figure for `Cc1cccc2cc(C(C)Nc3ncnc4[nH]cnc34)n(C3CC3)c(=O)c12` (stereo not drawn) is under 100 nM; for `CCC(Nc1ncnc2[nH]cnc12)c1cc2cccc(C)c2c(=O)n1C1CCN(C)CC1` (stereo not drawn) it is under 100 nM; for `CC(Nc1ncnc2[nH]cnc12)c1cc2cccc(Cl)c2c(=O)n1-c1ccccc1` (stereo not drawn) it is under 100 nM. On the same count and under the same terms, as for `Cc1ccccc1-n1c(Cn2nc(C(N)=O)c3c(N)ncnc32)cc2cccc(C)c2c1=O`, the figure is under 100 nM; as for `Nc1ncnc2c1c(-c1ccc(Cl)c(O)c1)nn2Cc1cc2cccc(I)c2c(=O)n1C1CCCC1`, under 10000 nM.
